Measured values as given in ChEMBL document CHEMBL5465560, “Selectivity Literature for EUbOPEN Chemogenomic Library” (2024).
Each block holds one compound with its values, some of them ahead of it.

What was measured:
[1] = biological target: Casein kinase I isoform epsilon (Homo sapiens, UniProt P49674); assay: Selectivity interaction (KinomeScan (DiscoverX)) EUB0000655a CSNK1E; details: at 10 µM
[2] = biological target: SRSF protein kinase 3 (Homo sapiens) (UniProt Q9UPE1); assay: Selectivity interaction (KinomeScan (DiscoverX)) EUB0000655a SRPK3; details: at 10 µM
[3] = biological target: Myosin light chain kinase, smooth muscle (Homo sapiens, UniProt Q15746); assay: Selectivity interaction (Upstate Kinase Profiler service (Millipore)) EUB0000056c MYLK; details: at 1 µM
[4] = biological target: T1, Discoidin domain-containing receptor 2 (Homo sapiens) (UniProt Q16832); assay: Selectivity interaction (KinomeScan (DiscoverX)) EUB0000229b DDR2; details: at 10 µM
T1 sequence (whole entry): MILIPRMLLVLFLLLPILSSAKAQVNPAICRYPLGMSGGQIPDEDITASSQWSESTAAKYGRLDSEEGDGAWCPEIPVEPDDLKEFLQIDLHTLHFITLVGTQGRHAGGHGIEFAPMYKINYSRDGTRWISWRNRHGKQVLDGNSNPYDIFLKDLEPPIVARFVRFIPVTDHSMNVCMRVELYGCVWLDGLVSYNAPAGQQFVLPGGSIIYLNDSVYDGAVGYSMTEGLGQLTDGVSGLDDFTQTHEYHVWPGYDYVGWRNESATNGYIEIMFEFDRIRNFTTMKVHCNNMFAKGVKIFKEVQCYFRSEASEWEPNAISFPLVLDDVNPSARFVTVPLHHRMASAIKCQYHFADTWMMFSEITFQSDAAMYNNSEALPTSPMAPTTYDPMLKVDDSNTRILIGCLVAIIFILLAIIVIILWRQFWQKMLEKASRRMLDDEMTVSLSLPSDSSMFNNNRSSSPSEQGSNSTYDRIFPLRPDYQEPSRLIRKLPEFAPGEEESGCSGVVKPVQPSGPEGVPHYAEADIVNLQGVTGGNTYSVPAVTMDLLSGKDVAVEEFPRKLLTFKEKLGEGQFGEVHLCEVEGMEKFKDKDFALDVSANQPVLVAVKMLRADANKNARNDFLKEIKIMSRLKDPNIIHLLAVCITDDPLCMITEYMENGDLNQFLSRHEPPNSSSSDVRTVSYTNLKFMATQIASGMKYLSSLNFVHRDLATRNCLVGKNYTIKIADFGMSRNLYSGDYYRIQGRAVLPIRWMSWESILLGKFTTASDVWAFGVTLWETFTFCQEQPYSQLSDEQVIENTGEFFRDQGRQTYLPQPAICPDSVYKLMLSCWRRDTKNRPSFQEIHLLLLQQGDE

[5] = biological target: T2, cGMP-dependent protein kinase 1 (Homo sapiens) (UniProt Q13976); assay: Selectivity interaction (KinomeScan (DiscoverX)) EUB0000229b PRKG1; details: at 10 µM
T2 sequence (whole entry): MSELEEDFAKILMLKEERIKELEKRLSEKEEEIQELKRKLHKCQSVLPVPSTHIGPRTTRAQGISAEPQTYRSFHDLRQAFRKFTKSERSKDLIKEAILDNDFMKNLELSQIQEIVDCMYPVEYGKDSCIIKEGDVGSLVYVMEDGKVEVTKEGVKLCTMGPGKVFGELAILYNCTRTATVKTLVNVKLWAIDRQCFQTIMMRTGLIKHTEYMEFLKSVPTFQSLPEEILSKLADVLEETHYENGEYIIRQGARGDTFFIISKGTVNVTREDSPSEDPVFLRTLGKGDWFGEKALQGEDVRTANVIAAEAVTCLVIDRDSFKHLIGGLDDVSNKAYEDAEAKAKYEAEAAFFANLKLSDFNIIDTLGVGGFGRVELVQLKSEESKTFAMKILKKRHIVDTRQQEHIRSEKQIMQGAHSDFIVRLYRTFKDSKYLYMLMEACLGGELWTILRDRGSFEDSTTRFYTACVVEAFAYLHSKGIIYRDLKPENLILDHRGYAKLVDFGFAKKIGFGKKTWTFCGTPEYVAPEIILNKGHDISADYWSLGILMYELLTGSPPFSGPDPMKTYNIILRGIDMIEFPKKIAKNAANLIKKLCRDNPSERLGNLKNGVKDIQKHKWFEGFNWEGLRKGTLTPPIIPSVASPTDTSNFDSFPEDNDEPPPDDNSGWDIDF

[6] = biological target: T3, Hormonally up-regulated neu tumor-associated kinase (Homo sapiens) (UniProt P57058); assay: Selectivity interaction (KinomeScan (DiscoverX)) EUB0000092b HUNK; details: at 10 µM
T3 sequence (whole entry): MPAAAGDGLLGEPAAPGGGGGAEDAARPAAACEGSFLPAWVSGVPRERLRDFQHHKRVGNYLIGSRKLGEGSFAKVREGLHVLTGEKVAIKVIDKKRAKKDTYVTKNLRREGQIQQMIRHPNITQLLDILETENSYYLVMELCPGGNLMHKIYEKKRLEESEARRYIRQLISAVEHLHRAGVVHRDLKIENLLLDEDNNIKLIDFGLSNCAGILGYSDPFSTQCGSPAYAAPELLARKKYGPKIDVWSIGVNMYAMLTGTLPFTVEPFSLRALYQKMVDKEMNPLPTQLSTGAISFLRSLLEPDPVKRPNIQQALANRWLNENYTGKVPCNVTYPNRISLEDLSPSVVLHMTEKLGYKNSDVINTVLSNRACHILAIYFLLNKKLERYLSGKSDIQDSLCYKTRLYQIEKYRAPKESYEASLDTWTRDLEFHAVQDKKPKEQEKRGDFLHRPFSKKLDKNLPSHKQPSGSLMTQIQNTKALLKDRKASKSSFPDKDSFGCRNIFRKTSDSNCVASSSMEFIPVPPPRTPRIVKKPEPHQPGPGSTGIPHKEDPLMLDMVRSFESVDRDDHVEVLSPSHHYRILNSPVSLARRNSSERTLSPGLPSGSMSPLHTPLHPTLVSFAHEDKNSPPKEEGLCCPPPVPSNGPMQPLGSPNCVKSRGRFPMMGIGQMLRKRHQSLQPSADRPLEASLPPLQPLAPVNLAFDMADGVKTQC

[7] = biological target: Tyrosine-protein kinase JAK1 (Homo sapiens, UniProt P23458); assay: Selectivity interaction (Kinase panel (Carna Biosciences)) EUB0001542aTs JAK1; details: at 1 µM
Sequence of Tyrosine-protein kinase JAK1 (P23458 whole entry): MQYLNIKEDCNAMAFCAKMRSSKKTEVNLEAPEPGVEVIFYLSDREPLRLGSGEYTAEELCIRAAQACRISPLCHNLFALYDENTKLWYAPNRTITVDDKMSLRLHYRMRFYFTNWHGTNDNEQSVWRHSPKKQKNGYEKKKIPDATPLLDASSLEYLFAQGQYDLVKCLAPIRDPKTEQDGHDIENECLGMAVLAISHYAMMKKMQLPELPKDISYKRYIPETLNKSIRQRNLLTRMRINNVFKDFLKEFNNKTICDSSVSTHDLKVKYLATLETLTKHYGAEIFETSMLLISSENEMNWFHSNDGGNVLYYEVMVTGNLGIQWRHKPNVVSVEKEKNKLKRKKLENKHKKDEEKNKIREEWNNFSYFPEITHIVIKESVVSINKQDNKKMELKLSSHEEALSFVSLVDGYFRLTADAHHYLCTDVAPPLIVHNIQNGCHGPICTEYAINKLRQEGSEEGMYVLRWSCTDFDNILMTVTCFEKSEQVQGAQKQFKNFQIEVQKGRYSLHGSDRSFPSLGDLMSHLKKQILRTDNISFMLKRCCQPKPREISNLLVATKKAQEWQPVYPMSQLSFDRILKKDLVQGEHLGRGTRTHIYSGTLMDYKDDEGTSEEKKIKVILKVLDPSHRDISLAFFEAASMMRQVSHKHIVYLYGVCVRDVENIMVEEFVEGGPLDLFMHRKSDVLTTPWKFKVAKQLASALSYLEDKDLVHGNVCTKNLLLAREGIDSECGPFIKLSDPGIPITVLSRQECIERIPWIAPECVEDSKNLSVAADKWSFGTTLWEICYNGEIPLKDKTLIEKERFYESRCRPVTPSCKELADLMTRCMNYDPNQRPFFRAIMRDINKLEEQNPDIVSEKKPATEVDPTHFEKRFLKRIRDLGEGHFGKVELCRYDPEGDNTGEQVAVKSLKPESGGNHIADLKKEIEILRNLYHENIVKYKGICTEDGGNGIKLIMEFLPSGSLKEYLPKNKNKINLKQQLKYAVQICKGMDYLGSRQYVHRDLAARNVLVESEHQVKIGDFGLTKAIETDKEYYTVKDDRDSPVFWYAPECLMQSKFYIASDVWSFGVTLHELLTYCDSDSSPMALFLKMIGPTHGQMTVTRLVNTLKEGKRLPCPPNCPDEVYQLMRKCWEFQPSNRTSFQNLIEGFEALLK

Sequence of Myosin light chain kinase, smooth muscle (Q15746 whole entry, the tested form may be a part): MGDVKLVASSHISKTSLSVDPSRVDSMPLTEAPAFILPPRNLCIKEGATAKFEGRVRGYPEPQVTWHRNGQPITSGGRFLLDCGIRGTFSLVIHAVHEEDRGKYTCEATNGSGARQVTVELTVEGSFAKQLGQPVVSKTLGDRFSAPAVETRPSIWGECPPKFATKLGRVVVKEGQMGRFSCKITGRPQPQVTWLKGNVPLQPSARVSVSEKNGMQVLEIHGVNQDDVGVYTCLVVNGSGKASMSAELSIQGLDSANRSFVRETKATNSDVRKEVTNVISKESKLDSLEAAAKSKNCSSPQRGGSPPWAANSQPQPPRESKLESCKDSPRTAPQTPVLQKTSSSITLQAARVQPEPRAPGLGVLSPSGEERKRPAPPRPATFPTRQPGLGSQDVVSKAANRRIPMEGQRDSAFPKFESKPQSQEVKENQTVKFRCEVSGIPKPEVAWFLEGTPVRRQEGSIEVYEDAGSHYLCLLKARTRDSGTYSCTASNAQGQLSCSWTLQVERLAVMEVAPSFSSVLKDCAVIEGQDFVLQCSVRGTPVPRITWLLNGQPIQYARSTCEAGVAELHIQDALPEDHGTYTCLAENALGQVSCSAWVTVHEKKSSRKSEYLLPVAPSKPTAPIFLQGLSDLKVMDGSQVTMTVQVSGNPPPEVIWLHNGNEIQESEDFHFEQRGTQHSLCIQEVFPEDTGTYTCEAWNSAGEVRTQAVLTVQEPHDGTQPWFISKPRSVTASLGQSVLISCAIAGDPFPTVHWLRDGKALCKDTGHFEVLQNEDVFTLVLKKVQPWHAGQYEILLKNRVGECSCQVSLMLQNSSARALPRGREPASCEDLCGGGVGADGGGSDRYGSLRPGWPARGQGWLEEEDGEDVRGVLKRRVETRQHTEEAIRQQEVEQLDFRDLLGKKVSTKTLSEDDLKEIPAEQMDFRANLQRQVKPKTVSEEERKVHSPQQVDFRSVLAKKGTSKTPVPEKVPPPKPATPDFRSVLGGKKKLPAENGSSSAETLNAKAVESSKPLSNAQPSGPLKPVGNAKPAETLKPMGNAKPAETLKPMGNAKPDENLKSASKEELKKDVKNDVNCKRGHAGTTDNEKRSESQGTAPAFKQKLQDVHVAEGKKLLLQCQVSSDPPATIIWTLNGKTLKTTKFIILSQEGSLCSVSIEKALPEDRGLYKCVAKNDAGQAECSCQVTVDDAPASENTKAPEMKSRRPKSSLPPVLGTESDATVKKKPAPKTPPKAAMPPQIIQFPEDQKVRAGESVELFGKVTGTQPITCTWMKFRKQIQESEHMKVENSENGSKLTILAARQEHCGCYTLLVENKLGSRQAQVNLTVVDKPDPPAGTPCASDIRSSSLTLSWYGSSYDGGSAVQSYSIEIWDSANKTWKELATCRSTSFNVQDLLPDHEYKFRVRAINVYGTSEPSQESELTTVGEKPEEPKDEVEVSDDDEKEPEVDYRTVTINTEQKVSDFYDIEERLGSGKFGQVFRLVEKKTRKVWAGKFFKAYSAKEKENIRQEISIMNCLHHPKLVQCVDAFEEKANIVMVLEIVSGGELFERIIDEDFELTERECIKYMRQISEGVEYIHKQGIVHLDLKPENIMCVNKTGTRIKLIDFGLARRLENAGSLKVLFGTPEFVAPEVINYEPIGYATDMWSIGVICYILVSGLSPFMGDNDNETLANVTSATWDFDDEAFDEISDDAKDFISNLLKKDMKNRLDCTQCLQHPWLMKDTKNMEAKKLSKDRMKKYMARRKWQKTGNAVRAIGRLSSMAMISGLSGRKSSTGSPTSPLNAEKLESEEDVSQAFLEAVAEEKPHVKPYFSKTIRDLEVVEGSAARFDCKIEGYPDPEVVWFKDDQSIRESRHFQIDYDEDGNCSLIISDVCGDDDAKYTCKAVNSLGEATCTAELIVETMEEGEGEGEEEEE
Sequence of Casein kinase I isoform epsilon (P49674 whole entry, looked up, canonical isoform): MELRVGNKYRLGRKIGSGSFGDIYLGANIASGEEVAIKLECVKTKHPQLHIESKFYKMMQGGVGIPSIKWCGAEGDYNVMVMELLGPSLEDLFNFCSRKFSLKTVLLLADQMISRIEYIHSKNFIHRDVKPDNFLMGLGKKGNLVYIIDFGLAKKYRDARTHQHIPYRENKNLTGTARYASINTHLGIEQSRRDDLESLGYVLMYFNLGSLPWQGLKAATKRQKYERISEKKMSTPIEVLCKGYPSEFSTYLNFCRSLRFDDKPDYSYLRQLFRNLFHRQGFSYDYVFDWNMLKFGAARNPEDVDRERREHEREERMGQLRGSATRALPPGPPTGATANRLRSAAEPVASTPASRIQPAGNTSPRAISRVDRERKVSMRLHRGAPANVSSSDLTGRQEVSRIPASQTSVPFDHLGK
Sequence of SRSF protein kinase 3 (Homo sapiens) (Q9UPE1 whole entry): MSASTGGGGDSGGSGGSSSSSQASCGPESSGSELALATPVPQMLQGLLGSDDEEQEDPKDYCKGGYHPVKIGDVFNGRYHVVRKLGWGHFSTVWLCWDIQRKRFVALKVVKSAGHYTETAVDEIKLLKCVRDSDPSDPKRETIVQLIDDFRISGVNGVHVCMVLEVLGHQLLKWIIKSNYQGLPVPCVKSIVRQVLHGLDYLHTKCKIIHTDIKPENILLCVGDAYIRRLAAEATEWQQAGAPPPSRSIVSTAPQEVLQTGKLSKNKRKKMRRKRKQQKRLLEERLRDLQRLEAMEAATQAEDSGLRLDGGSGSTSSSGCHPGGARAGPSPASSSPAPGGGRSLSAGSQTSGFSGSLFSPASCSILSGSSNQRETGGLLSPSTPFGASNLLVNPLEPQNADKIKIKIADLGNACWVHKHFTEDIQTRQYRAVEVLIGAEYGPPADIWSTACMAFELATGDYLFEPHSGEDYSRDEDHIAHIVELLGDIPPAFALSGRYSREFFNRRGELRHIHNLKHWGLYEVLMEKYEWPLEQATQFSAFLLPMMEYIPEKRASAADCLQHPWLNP

Compound: CN(C)CCOc1ccc(-c2nc(-c3ccncc3)c(-c3ccc4c(c3)CC/C4=N\O)[nH]2)cc1
- % of control [1]: 14%
- % of control [2]: 100%

- % of inhibition [3]: 1%
Compound: Cc1ccc(-c2ccc3c(ccc4sc5c(c43)NC[C@@H](C)NC5=O)n2)cn1

Compound: COc1cc(N(C)c2ccnc3ccc(C(F)(F)F)cc23)cc(OC)c1OC
- % binding [4]: 93%
- % binding [5]: 76%

Compound: CCC(=O)N1CCN(c2ccc(-n3c(=O)ccc4cnc5ccc(-c6cnc7ccccc7c6)cc5c43)cc2C(F)(F)F)CC1
- % of control [6]: 91%

- % of inhibition [7]: 96%
Compound: Cn1cc(Nc2nccc(N3CC4CCC(C3)N4C(=O)[C@@H]3CC3(F)F)n2)cn1
